Experimental data taken from US20250170248A1, “SMARCA DEGRADERS AND USES THEREOF” (Kymera Therapeutics, Inc., priority 2021, published 2025).

Experiments:
Assay type in all cases: cell-based
SMARCA4 = target: T1, SMARCA4 (Homo sapiens, UniProt P51532); test: SMARCA4 Western blot degradation in MV4-11 cells; details: for Dmax: MV4-11, MV4-11 cells, read-out: SMARCA4 MSD MV411 degradation 24 h: average Dmax %; for Dmax / DC50: 24 h; for DC50: read-out: SMARCA4 MSD MV411 degradation 24 h: Mean external-Abs DC50
T1 construct: SMARCA2/SMARCA4 protein degradation selectivity in MV4-11 cells; endogenous in cells; host or cells: MV4-11
T1 sequence (P51532 whole entry): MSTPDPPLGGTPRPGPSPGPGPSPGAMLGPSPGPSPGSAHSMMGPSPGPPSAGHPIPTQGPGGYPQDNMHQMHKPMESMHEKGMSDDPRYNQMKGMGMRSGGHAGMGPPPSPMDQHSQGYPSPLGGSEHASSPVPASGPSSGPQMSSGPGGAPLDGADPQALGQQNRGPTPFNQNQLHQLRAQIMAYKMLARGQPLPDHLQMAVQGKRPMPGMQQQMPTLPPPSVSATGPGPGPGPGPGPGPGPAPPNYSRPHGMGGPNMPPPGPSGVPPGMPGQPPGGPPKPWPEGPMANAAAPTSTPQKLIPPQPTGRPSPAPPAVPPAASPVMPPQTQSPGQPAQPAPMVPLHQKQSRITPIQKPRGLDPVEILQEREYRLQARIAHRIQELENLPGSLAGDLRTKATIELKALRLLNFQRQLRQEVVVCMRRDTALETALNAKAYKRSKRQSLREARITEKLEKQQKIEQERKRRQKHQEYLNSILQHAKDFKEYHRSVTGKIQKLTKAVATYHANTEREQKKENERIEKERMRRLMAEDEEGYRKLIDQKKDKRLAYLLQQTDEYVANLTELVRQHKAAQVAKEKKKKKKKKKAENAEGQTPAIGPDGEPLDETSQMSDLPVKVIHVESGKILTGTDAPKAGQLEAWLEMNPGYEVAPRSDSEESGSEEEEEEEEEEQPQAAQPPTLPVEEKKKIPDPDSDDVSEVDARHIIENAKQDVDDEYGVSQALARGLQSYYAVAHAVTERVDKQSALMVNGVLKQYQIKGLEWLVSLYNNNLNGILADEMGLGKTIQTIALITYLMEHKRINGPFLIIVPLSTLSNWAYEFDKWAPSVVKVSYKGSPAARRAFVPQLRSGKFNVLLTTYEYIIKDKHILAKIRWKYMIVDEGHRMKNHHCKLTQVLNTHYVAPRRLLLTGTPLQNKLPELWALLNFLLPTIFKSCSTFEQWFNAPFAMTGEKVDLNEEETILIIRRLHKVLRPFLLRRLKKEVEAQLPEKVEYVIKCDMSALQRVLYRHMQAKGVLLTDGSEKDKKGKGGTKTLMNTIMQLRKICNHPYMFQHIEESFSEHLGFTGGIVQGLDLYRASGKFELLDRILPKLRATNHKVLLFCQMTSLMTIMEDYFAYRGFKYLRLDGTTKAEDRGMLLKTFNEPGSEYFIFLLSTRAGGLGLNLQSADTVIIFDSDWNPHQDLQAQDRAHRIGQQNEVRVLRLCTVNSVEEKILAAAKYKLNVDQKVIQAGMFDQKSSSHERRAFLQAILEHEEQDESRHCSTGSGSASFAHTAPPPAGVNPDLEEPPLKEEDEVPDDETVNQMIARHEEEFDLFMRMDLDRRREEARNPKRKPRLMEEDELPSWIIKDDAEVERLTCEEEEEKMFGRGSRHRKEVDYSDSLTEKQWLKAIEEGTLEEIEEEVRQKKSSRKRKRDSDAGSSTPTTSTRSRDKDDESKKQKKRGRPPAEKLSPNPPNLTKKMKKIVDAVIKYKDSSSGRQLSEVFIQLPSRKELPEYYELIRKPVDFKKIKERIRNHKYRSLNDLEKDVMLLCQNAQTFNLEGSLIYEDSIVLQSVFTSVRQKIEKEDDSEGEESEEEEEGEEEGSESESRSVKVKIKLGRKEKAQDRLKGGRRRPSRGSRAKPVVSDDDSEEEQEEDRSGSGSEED
Procedure, shortened: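 Fluorescent LI-COR imaging of Western blots quantified SMARCA2 and SMARCA4 protein remaining in MV4-11 cells after 24 h of compound treatment. β-actin was the loading control, and DC50, Dmax and SMARCA2/4 selectivity are given as letter-coded ranges.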

SMARCA2 [1] = target: T2, SMARCA2 (Homo sapiens, UniProt P51531); test: SMARCA2 Western blot degradation in MV4-11 cells; design: SMARCA2/SMARCA4 protein degradation selectivity in MV4-11 cells; endogenous in cells; host or cells: MV4-11; details: for Dmax: MV4-11, MV4-11 cells, read-out: SMARCA2 MSD MV411 degradation 24 h: average Dmax %; for DC50: read-out: SMARCA2 MSD MV411 degradation 24 h: Mean external-Abs DC50; for Selectivity in MV411: SMARCA2/4 selectivity
T2 sequence (P51531 whole entry): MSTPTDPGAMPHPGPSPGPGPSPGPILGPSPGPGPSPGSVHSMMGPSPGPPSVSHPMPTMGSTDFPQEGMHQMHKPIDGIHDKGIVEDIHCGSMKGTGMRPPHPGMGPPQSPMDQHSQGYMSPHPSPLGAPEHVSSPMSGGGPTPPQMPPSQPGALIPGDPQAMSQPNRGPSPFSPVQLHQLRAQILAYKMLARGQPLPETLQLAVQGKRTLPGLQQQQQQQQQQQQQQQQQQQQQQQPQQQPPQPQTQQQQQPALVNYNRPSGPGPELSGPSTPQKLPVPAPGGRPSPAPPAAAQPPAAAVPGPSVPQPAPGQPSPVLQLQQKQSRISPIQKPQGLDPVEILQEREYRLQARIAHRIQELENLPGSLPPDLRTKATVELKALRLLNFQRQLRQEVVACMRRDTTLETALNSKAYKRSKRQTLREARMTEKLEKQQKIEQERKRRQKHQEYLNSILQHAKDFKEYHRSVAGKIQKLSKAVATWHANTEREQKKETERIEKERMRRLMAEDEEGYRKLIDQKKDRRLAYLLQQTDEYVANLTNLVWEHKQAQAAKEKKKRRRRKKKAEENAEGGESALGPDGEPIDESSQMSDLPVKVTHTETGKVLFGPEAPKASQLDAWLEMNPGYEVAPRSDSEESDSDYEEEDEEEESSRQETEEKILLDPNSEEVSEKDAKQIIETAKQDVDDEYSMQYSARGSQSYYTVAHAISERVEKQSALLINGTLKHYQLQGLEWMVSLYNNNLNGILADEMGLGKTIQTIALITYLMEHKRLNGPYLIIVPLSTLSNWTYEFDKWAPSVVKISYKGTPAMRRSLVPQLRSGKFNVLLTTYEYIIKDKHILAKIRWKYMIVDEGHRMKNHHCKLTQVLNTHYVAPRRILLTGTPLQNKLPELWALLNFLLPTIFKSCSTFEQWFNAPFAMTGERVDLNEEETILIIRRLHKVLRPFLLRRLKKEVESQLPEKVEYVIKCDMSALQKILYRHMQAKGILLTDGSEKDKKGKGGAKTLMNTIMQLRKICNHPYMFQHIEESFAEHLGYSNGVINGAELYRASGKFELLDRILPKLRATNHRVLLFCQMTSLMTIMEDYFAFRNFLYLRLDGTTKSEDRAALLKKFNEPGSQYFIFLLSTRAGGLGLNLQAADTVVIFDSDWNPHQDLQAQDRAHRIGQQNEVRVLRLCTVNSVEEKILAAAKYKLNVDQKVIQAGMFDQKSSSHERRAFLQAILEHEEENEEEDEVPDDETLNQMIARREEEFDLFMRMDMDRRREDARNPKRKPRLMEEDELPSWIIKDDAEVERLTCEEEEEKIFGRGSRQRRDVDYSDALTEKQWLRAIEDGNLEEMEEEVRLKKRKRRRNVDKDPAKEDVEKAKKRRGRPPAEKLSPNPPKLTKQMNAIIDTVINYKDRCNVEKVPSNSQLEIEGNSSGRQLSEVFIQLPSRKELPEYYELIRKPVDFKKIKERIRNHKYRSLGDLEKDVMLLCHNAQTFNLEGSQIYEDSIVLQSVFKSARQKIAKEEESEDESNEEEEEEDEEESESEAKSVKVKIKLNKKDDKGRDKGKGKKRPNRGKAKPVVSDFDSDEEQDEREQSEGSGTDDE

SMARCA2 [2] = target: T2, SMARCA2; test: MSD SMARCA2 degradation in A549 cell line; details: for Dmax: A549, A549 cells; for Dmax / DC50: 24 h; for DC50: read-out: SMARCA2 MSD A549 degradation 24 h: Average external-Abs DC50
Procedure, shortened: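 SMARCA2 protein remaining after 24 h exposure of A549 cells (top concentration 1000 nM, 3-fold dilutions) was measured by MSD electrochemiluminescence immunoassay of cell lysates. Results are given as binned DC50 and maximal degradation (Dmax) codes.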

Row | SMILES | Dmax (SMARCA4) | DC50 (SMARCA4; MV4-11 cells) | Dmax (SMARCA2 [1]; 24 h) | DC50 (SMARCA2 [1]; MV4-11 cells, 24 h) | Selectivity in MV411 (SMARCA2 [1]; MV4-11 cells) | Dmax (SMARCA2 [2]) | DC50 (SMARCA2 [2]; A549 cells) | SMARCA4 MSD MV411 degradation 24 h: average Dmax % (SMARCA4; MV4-11 cells) | SMARCA2 MSD MV411 degradation 24 h: average Dmax % (SMARCA2 [1]; MV4-11 cells, 24 h) | SMARCA2 MSD A549 degradation 24 h: Average Dmax % (SMARCA2 [2]; A549 cells)
1 | C#Cc1ccc2c(c1)OCC[C@H]2NC(=O)[C@@H]1C[C@@H](O)CN1C(=O)[C@@H](NC(=O)N1CC2(CC(N3CCC(c4cnc(N5CCc6[nH]c7nnc(-c8ccccc8O)cc7c6[C@H]5C)nc4)CC3)C2)C1)C(C)(C)C (single isomer, unassigned) [I-236] | < 50% | > 0.1 µM | 50 to 70% | > 0.1 µM | D (D (<10 fold)) | 70 to 90% | > 0.1 µM | – | – | –
2 | C#Cc1ccc(CNC(=O)[C@@H]2C[C@@H](O)CN2C(=O)[C@@H](NC(=O)N2CC3(CC(N4CCC5(CCN(c6cnc(N7CCc8[nH]c9nnc(-c%10ccccc%10O)cc9c8C7C)nc6)C5)C4)C3)C2)C(C)(C)C)cc1 (stereo partly drawn) [I-173] | 50 to 70% | > 0.1 µM | 50 to 70% | 0.01 to 0.1 µM | C (C (10-100 fold)) | > 90% | > 0.1 µM | – | – | –
3 | C#Cc1ccc(CNC(=O)[C@@H]2C[C@@H](O)CN2C(=O)[C@@H](NC(=O)C2CCC3(CC2)CC(N2CCC(N4CCC[C@H](C(=O)N5CCN6c7cc(-c8ccccc8O)nnc7NC[C@H]6C5)C4)CC2)C3)C(C)(C)C)cc1 (single isomer, unassigned) [I-90] | < 50% | > 0.1 µM | 70 to 90% | 0.01 to 0.1 µM | C (C (10-100 fold)) | 70 to 90% | > 0.1 µM | – | – | –
4 | C#Cc1ccc(CNC(=O)[C@@H]2C[C@@H](O)CN2C(=O)[C@@H](NC(=O)N2CC3(CC(N4CCC(c5cnc(N6CCc7[nH]c8nnc(-c9ccccc9O)cc8c7[C@H]6C)nc5)CC4)C3)C2)C(C)(C)C)c(C)c1 [I-270] | > 90% | > 0.1 µM | > 90% | 0.001 to 0.01 µM | C (C (10-100 fold)) | > 90% | < 0.01 µM | – | – | –
5 | C#Cc1ccc(CNC(=O)[C@@H]2C[C@@H](O)CN2C(=O)[C@@H](NC(=O)N2CC3(CC(CN4CCC(c5cnc(N6CCc7[nH]c8nnc(-c9ccccc9O)cc8c7[C@H]6C)nc5)CC4)C3)C2)C(C)(C)C)cc1 [I-410] | 70 to 90% | > 0.1 µM | 70 to 90% | 0.001 to 0.01 µM | C (C (10-100 fold)) | > 90% | 0.01 to 0.05 µM | – | – | –
6 | C#Cc1ccc(CNC(=O)[C@@H]2C[C@@H](O)CN2C(=O)[C@@H](NC(=O)[C@H]2CC3(C2)C[C@H](c2cnc(N4CCC(N5CCN6c7cc(-c8ccccc8O)nnc7NC[C@H]6C5)CC4)nc2)C3)C(C)(C)C)cc1 (single isomer, unassigned) [I-301] | > 90% | 0.01 to 0.1 µM | > 90% | 0.001 to 0.01 µM | C (C (10-100 fold)) | > 90% | 0.01 to 0.05 µM | – | – | –
7 | C#Cc1c(F)cc(CNC(=O)[C@@H]2C[C@@H](O)CN2C(=O)[C@@H](NC(=O)N2CC3(CC(N4CCC(c5cnc(N6CCc7[nH]c8nnc(-c9ccccc9O)cc8c7[C@H]6C)nc5)CC4)C3)C2)C(C)(C)C)cc1F [I-402] | > 90% | > 0.1 µM | 70 to 90% | 0.001 to 0.01 µM | C (C (10-100 fold)) | > 90% | 0.01 to 0.05 µM | – | – | –
8 | Cc1ncsc1-c1ccc(CNC(=O)[C@@H]2C[C@@H](O)CN2C(=O)[C@@H](NC(=O)[C@H]2CC[C@@H](c3ccc(-c4cnc(N5CCN6c7cc(-c8ccccc8O)nnc7NC[C@H]6C5)nc4)cc3)CC2)C(C)(C)C)cc1 [I-86] | > 90% | 0.001 to 0.01 µM | > 90% | < 0.001 µM | C (C (10-100 fold)) | > 90% | < 0.01 µM | – | – | –
9 | C#Cc1ccc(CNC(=O)[C@@H]2C[C@@H](O)CN2C(=O)[C@@H](NC(=O)N2CC3(CC(N4CCC([C@H]5CC[C@H](N6CCc7[nH]c8nnc(-c9ccccc9O)cc8c7[C@H]6C)CC5)CC4)C3)C2)C(C)(C)C)cc1 [I-184] | < 50% | > 0.1 µM | < 50% | > 0.1 µM | C (C (10-100 fold)) | > 90% | > 0.1 µM | – | – | –
10 | Cc1ncsc1-c1ccc(CNC(=O)[C@@H]2C[C@@H](O)CN2C(=O)[C@@H](NC(=O)[C@H]2CC3(C2)C[C@H](N2CCC(N4CCC(c5ccc6[nH]c7nnc(-c8ccccc8O)cc7c6c5)CC4)CC2)C3)C(C)(C)C)cc1 (single isomer, unassigned) [I-28] | < 50% | > 0.1 µM | 50 to 70% | 0.01 to 0.1 µM | C (C (10-100 fold)) | 70 to 90% | 0.05 to 0.1 µM | – | – | –
11 | C#Cc1ccc(CNC(=O)[C@@H]2C[C@@H](O)CN2C(=O)[C@@H](NC(=O)N2CC3(CC(N4CCC(c5cnc(N6CCc7[nH]c8nnc(-c9ccccc9O)cc8c7[C@H]6C)nc5)CC4)C3)C2)C(C)(C)CCN2CCN[C@H](C(=O)O)C2)cc1 [I-344] | < 50% | > 0.1 µM | < 50% | > 0.1 µM | C (C (10-100 fold)) | < 50% | > 0.1 µM | – | – | –
12 | C#Cc1ccc(CNC(=O)[C@@H]2C[C@@H](O)CN2C(=O)[C@@H](NC(=O)[C@H]2CC3(C2)C[C@H](N2CCC(N4CCC(N5CCN6c7cc(-c8ccccc8O)nnc7NC[C@H]6C5)CC4)CC2)C3)C(C)(C)CCO)cc1 (single isomer, unassigned) [I-364] | < 50% | > 0.1 µM | 50 to 70% | 0.01 to 0.1 µM | B (B (>100-500 fold)) | 70 to 90% | > 0.1 µM | – | – | –
13 | C#Cc1ccc(CNC(=O)[C@@H]2C[C@@H](O)CN2C(=O)[C@@H](NC(=O)[C@H]2CCC3(CC2)C[C@H](N2CCC(N4CC5(CC(N6CCN7c8cc(-c9ccccc9O)nnc8NC[C@H]7C6)C5)C4)CC2)C3)C(C)(C)C)cc1 (single isomer, unassigned) [I-237] | – | > 0.1 µM | – | 0.001 to 0.01 µM | B (B (>100-500 fold)) | – | 0.05 to 0.1 µM | D (D (<50% degradation)) | B (B (>70-90% degradation)) | A (A (>90% degradation))
14 | C#Cc1ccc([C@@H](C)NC(=O)[C@@H]2C[C@@H](O)CN2C(=O)C(c2cc(N3CCC(CN4CCC(N5CCC(N6CCN7c8cc(-c9ccccc9O)nnc8NC[C@H]7C6)CC5)CC4)CC3)no2)C(C)C)c(Cl)c1 (stereo partly drawn) [I-327] | 70 to 90% | > 0.1 µM | 70 to 90% | 0.01 to 0.1 µM | C (C (10-100 fold)) | > 90% | 0.05 to 0.1 µM | – | – | –
15 | Cc1ncsc1-c1ccc(CNC(=O)[C@@H]2C[C@@H](O)CN2C(=O)[C@@H](NC(=O)N2CC3(CCC(N4CCC(c5cnc(N6CCc7[nH]c8nnc(-c9ccccc9O)cc8c7[C@@H]6C)nc5)CC4)CC3)C2)C(C)(C)C)cc1 (single isomer, unassigned) [I-63] | 50 to 70% | > 0.1 µM | 70 to 90% | 0.01 to 0.1 µM | C (C (10-100 fold)) | > 90% | 0.01 to 0.05 µM | – | – | –
